These are literature values, as cited in publication PMC4627231, “Targeting the sugar metabolism of tumors with a first-in-class 6-phosphofructo-2-kinase (PFKFB4) inhibitor” (Oncotarget, 2015).

The subject of the data set is breast cancer patients. Also on record: method as in PMID 25524798. To be noted: cited from earlier work.

`CC(=O)c1c(C)c2cnc(Nc3ccc(N4CCNCC4)cn3)nc2n(C2CCCC2)c1=O` [palbociclib]: the progression-free survival result is on record as “double” and the toxicity entry was “without causing excessive toxicity”.
